Numbered stars: 1 amine (or outer) side, 2 acyl side, 3 side chain; on linkers, the order of the positions; unused ones are H or OH. Square brackets hold non-standard residues; d marks the D form. Side chains are listed from the residue outwards. Peptide text beside a SMILES is read from it. * marks the point of attachment. Triazole(1,2,4-3-CO,5-NH) = O=C(c1n[nH]c(N[*:1])n1)[*:2]; Propanoyl(3-(4-F-phenyl)) = O=C(CCc1ccc(F)cc1)*; NH(4-amidinophenyl) = N=C(N)c1ccc(N*)cc1; dPhe(4-Cl) = N[C@H](Cc1ccc(Cl)cc1)C(=O)O; d1Nal = N[C@H](Cc1cccc2ccccc12)C(=O)O; d2Nal = N[C@H](Cc1ccc2ccccc2c1)C(=O)O; Lys(iPr) = CC(C)NCCCC[C@H](N)C(=O)O; NMeY = CN[C@@H](Cc1ccc(O)cc1)C(=O)O; d3Pal = N[C@H](Cc1cccnc1)C(=O)O; Suc = O=C(CCC(=O)[*:2])[*:1]; Nle = CCCC[C@H](N)C(=O)O; Sar = CNCC(=O)O

In the test the target is T1, human LHRH receptor (Homo sapiens, UniProt P30968).
T1 sequence (P30968 1-328): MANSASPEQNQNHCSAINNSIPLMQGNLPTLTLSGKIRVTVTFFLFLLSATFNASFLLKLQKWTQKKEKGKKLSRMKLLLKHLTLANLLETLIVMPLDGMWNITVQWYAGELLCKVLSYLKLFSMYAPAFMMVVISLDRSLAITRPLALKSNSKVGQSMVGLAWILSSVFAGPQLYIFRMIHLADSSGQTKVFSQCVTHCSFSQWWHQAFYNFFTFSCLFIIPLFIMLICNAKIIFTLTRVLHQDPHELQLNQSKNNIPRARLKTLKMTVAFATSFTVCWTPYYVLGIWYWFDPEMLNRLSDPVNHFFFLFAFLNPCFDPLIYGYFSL
Briefly: functional assay for antagonistic activity, fos-Luc luciferase reporter gene, stimulation with 1 nM [D-Trp6] LHRH. Format: cell-based. Also noted: expressed in transfected cells. As to conditions: cells stimulated with 1 nM [D-Trp6] LHRH for 6 h; bracket = number of independent experiments. As to the method:
The assay for the functional characterization of antagonistic analogs of LH-RH was carried out, with some modifications, as described in Beckers et al., “Characterization of gonadotropin-releasing hormone analogs based on a sensitive cellular luciferase reporter gene assay” (1997) Analyt. Biochem. 251, 17-23. The assay uses a reporter gene made by fusing the c-fos immediate-early gene promoter to a DNA sequence encoding luciferase (Luc). A recombinant cell line that expresses the human LH-RH. receptor is stably transfected with the fos-Luc reporter gene. Transcription of the fos-Luc fusion gene and synthesis of the Luc protein is induced in the cells in a dose-dependent manner by LH-RH and other LH-RH agonists that bind and signal through the human LH-RH receptor. Peptide LH-RH antagonists such as the compounds of the invention bind to cellular LH-RH receptors and inhibit this stimulation. The antagonistic potency (IC50) of peptide LH-RH antagonists as determined by the assay generally correlates well with the binding affinity (KD) of the LH-RH antagonists for LH-RH receptor as determined from ligand binding experiments.
Cells containing the fos-Luc reporter gene that express the human LH-RH receptor were cultured for 24 h in microtitre plates using DMEM with additives and 1% (v:v) FCS (10,000 cells per well). The cells were then stimulated with 1 nM [D-Trp^6] LHRH for 6 h. Peptide LH-RH antagonist compounds according to the invention were added before the stimulation, and the cells were lysed at the end for quantification of the cellular Luc activity. The calculation of the IC50 values from dose-effect curves was carried out by non-linear regression analysis using the Hill model (Programme EDX 2.0 from C. Grunwald, Arzneimittelwerk Dresden).
The quantification of the Luc activity was carried out in duplicate essentially as described (Promega Technical Bulletins #101/161) using the respective luciferase assay system (Promega E4030). Owing to addition of coenzyme A (CoA), an oxidation of luciferyl-CoA takes place with advantageous kinetics. After the removal of the culture medium from the microtitre plate, the cells were lysed by addition of 100 μl of lysis buffer (25 mM tris-phosphate pH 7.8, 2 mM dithiothreitol, 2 mM 1,2-diaminocyclohexane-N,N,N′,N′-tetraacetic acid (CDTA), 10% (v:v) glycerol, 1% (v:v) Triton X-100). After incubation at room temperature for 15 min, 10 μl of cell lysate were transferred into a white microtitre plate suitable for luminometric detection (Dynatech). The enzymatic reaction was initiated by addition of 50 μl of assay buffer (20 mM tricine pH 7.8, 1.07 mM (MgCO3)4Mg(OH)2, 2.67 mM MgSO4, 0.1 mM ethylene-diaminetetraacetic acid (EDTA), 33.3 mM dithiothreitol, 270 μM coenzyme A, 470 μM glow-worm (Photinus pyralis) luciferin, 530 μM rATPNa2). After one minute, the luminescence was determined for a total time of one second with a signal half-life of five minutes using the EG&G Berthold MicroLumat LB 96 P.
Background: A reporter such as luciferase makes a cellular process visible.
Consider `CC(C)C[C@H](NC(=O)[C@@H](CCCCNC(=O)c1nc(N)n[nH]1)NC(=O)[C@H](Cc1ccc(O)cc1)N(C)C(=O)[C@H](CO)NC(=O)[C@@H](Cc1cccc2ccccc12)NC(=O)CCc1ccc(F)cc1)C(=O)N[C@@H](CCCNC(=N)N)C(=O)N1CCC[C@H]1C(=O)N[C@H](C)C(N)=O` [Example 6, 3-(4-Fluorophenyl)propionyl-D-Nal(1)^1-Ser^4-N-Me-Tyr^5-D-Lys (Atz)^6-Leu^7-Arg^8-Pro^9-D-Ala^10-NH2] ({Propanoyl(3-(4-F-phenyl))}-[d1Nal]S[NMeY][dK](Triazole(1,2,4-3-CO,5-NH))LRP[dA]-NH2), for which half-maximal inhibition (IC50) required 0.221 nM.
Next, `CCCC[C@H](NC(=O)[C@@H](CCCCNC(=O)CCC(=O)Nc1ccc(C(=N)N)cc1)NC(=O)[C@H](Cc1ccc(O)cc1)N(C)C(=O)[C@H](CO)NC(=O)[C@@H](Cc1cccnc1)NC(=O)[C@@H](Cc1ccc(Cl)cc1)NC(=O)[C@@H](Cc1ccc2ccccc2c1)NC(C)=O)C(=O)N[C@@H](CCCNC(=N)N)C(=O)N1CCC[C@H]1C(=O)N(C)CC(N)=O` [Example 7, Ac-D-Nal(2)^1-D-Cpa^2-D-Pal(3)^3-Ser^4-N-Me-Tyr^5-D-Lys(B)^6-Nle^7-Arg^8-Pro^9-Sar^10-NH2] (Ac-[d2Nal][dPhe(4-Cl)][d3Pal]S[NMeY][dK]([Suc-NH(4-amidinophenyl)])[Nle]RP[Sar]-NH2): 1.3 nM; `CCCC[C@H](NC(=O)[C@@H](CCCCNC(=O)CCC(=O)Nc1ccc(C(=N)N)cc1)NC(=O)[C@H](Cc1ccc(O)cc1)N(C)C(=O)[C@H](CO)NC(=O)[C@@H](Cc1cccnc1)NC(=O)[C@@H](Cc1ccc(Cl)cc1)NC(=O)[C@@H](Cc1ccc2ccccc2c1)NC(C)=O)C(=O)N[C@@H](CCCNC(=N)N)C(=O)N1CCC[C@H]1C(=O)N[C@H](C)C(N)=O` [Example 8, Ac-D-Nal(2)^1-D-Cpa^2-D-Pal(3)^3-Ser^4-N-Me-Tyr^5-D-Lys(B)^6-Nle^7-Arg^8-Pro^9-D-Ala^10-NH2] (Ac-[d2Nal][dPhe(4-Cl)][d3Pal]S[NMeY][dK]([Suc-NH(4-amidinophenyl)])[Nle]RP[dA]-NH2): 1.4 nM; `CCCC[C@H](NC(=O)[C@@H](CCCCNC(=O)CCC(=O)Nc1ccc(C(=N)N)cc1)NC(=O)[C@H](Cc1ccc(O)cc1)N(C)C(=O)[C@H](CO)NC(=O)[C@@H](Cc1cccnc1)NC(=O)[C@@H](Cc1ccc(Cl)cc1)NC(=O)[C@@H](Cc1ccc2ccccc2c1)NC(C)=O)C(=O)N[C@@H](CCCCNC(C)C)C(=O)N1CCC[C@H]1C(=O)N(C)CC(N)=O` [Example 9, Ac-D-Nal(2)^1-D-Cpa^2-D-Pal(3)^3-Ser^4-N-Me-Tyr^5-D-Lys(B)^6-Nle^7-Lys(iPr)^8-Pro^9-Sar^10-NH2] (Ac-[d2Nal][dPhe(4-Cl)][d3Pal]S[NMeY][dK]([Suc-NH(4-amidinophenyl)])[Nle][Lys(iPr)]P[Sar]-NH2): 4.7 nM.

The values are drawn from US7732412B2, “Methods of treatment using novel LHRH antagonists having improved solubility properties” (Zentaris GmbH, priority 1999, dated 2010).
